Values joined by “and” are separate entries in the source; they are usually repeats but may differ in a detail not shown here. Identical values can stand only once.
target: 5-hydroxytryptamine receptor 4 (Homo sapiens, UniProt Q13639)
Sequence (Q13639 whole entry): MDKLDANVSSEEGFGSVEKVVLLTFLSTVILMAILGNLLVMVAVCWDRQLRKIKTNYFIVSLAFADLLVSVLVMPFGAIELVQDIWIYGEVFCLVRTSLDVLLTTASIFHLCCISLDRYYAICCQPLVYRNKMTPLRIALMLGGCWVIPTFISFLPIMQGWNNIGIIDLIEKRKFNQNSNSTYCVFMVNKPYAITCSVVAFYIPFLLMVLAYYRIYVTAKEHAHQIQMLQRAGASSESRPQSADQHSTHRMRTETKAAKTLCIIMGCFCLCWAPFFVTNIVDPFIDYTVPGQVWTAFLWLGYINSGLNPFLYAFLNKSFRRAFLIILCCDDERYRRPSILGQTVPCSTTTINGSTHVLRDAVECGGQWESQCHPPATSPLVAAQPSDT

Question: With COc1ccc2[nH]cc(CCN)c2c1 [tryptamine, 5-Methoxy] as the molecule, how does the Ki read?
Answer: 794 nM

Question: How did the Ki turn out when Cn1cc(C(=O)OCC2CCN(CCNS(C)(=O)=O)CC2)c2ccccc21 [GR 113808] was run?
Answer: 0.31 nM and 0.5 nM

Question: CCOc1cc(N)c(Cl)cc1C(=O)NCC1CN(Cc2ccc(F)cc2)CCO1 (stereo not given) [SMR000469200] was tested. Which Ki did it give?
Answer: 200 nM and 631 nM and 126 nM

Question: With CCCCN1CCC(COC(=O)c2cc(Cl)c(N)c3c2OCCO3)CC1 [CAS_121881] as the molecule, how does the Ki read?
Answer: 0.06 nM and 0.03 nM

Question: Which Ki does the source give for COc1ccc2[nH]cc(C=NN=C(N)NCCCCO)c2c1 [SDZ-HTF-919] here?
Answer: 15.8 nM and 10 nM and 25.1 nM
